Calls of active or inactive are those of the source. The calls are words filed in the database; no cut-off is given here.
Legend:
[1] = Lipophilicity, log D of the compound; format: physicochemical; settings: octanol/water
[2] = system: Mus musculus; experiment: Induction of CYP24 mRNA transcriptional activity in C57BL/6 mouse duodenum at 3 ug/kg, ip after 4 hrs; format: functional, organism-based
[3] = system: Mus musculus; experiment: Induction of TRPV6 mRNA transcriptional activity in C57BL/6 mouse duodenum at 3 ug/kg, ip after 4 hrs; format: functional, organism-based
[4] = system: Mus musculus; experiment: Induction of TRPV6 mRNA transcriptional activity in C57BL/6 mouse duodenum at 25 ug/kg, ip after 4 hrs; format: functional, organism-based
[5] = system: Mus musculus; experiment: Induction of CYP24 mRNA transcriptional activity in C57BL/6 mouse duodenum at 25 ug/kg, ip after 4 hrs; format: functional, organism-based

SMILES | logD [1] | also measured
C=C1/C(=C\C=C2/CCC[C@]3(C)[C@@H]([C@H](C)COCC#CC(C)(C)C)CC[C@@H]23)C[C@@H](O)C[C@@H]1O | 4.6 | –
C=C1/C(=C\C=C2/CCC[C@]3(C)[C@@H]([C@H](C)CCCC(C)(C)O)CC[C@@H]23)C[C@@H](O)C[C@@H]1O [CALCITRIOL] | 3.6 | Activity [2]: Active; Activity [3]: Active
C=C(COC[C@@H](C)[C@H]1CC[C@H]2/C(=C/C=C3/C[C@@H](O)C[C@H](O)C3=C)CCC[C@]12C)C1=CCCCC1(C)C | 4.9 | Activity [4]: Active; Activity [5]: Active
C=C(COC[C@@H](C)[C@H]1CC[C@H]2/C(=C/C=C3/C[C@@H](O)C[C@H](O)C3=C)CCC[C@]12C)c1ccccc1 | 5.1 | –
C=C1/C(=C\C=C2/CCC[C@]3(C)[C@@H]([C@H](C)COCC(=C)C4(C)CCCCC4)CC[C@@H]23)C[C@@H](O)C[C@@H]1O | 5.3 | –
C=C1/C(=C\C=C2/CCC[C@]3(C)[C@@H]([C@H](C)COCC(=C)C(C)(C)C)CC[C@@H]23)C[C@@H](O)C[C@@H]1O | 4.7 | Activity [4]: Active; Activity [5]: Active
C=C1/C(=C\C=C2/CCC[C@]3(C)[C@@H]([C@H](C)COC/C=C/C(C)(C)C)CC[C@@H]23)C[C@@H](O)C[C@@H]1O | 4.9 | –
C=C1/C(=C\C=C2/CCC[C@]3(C)[C@@H]([C@H](C)COCc4ccccc4)CC[C@@H]23)C[C@@H](O)C[C@@H]1O | 4.4 | –
C=C1/C(=C\C=C2/CCC[C@]3(C)[C@@H]([C@H](C)COCc4ccco4)CC[C@@H]23)C[C@@H](O)C[C@@H]1O | 3.3 | –

Reference: ChEMBL document CHEMBL1137609, “Low-calcemic, highly antiproliferative, 23-oxa ether analogs of the natural hormone 1 alpha,25-dihydroxyvitamin D3: design, synthesis, and preliminary biological evaluation” (J Med Chem, 2007)
